# Read-outs that look alike come from different tables or passages of the source.
# Assays:
# pancreatic islets [1] = settings: injected into fetal animals; cited from earlier work
# pancreatic islets [2] = settings: injected into fetal animals; cited from earlier work; remark: listed apart in the source
# [3] = system: Huh-7 cells stably transfected with AlbxTK; test: Gancyclovir sensitivity of Huh-7 cells transfected with AlbxTK, propidium iodine FACS; type: cell-based, human
# Experimental: Mouse and human liver cell lines were transfected with constructs containing delta thymidine kinase under the control of either a porcine albumin or α-fetoprotein (AFP) promoter. The mouse cell line (TIB73) is a line of mature hepatocytes in which albumin is expressed. The human cell line (Huh-7) is a line of hepatocellular carcinoma cells that express predominantly AFP. The transfected cells were tested for thymidine kinase by Western blot. To assess the function of mutated thymidine kinase, Huh-7 cells were stably transfected with AlbxTK. Transfected cells were selected using 200 μg/ml Zeocin. Transfected cells as well as untransfected cells were plated in duplicate in 24-well plates at a 40 percent confluence ratio. Gancyclovir was added to the cells in the culture media at different concentrations (4 μM, 8 μM, and 16 μM. […]
# [4] = system: untransfected Huh-7 cells; test: Gancyclovir effect on untransfected cells, propidium iodine FACS; type: cell-based, human; settings: gancyclovir 4, 8, 16 μM in culture media
# Experimental: To assess the function of mutated thymidine kinase, Huh-7 cells were stably transfected with AlbxTK. Transfected cells were selected using 200 μg/ml Zeocin. Transfected cells as well as untransfected cells were plated in duplicate in 24-well plates at a 40 percent confluence ratio. Gancyclovir was added to the cells in the culture media at different concentrations (4 μM, 8 μM, and 16 μM. After 5 days, the cells were trypsinized, washed twice in PBS, and stained with propidium iodine for FACS analysis.
# [5] = system: fetal mice heterozygous for thymidine kinase under the albumin promoter; settings: for fetal hepatocyte injury (histology): 14 days gestation
# Excerpt: The suicide gene product preferably is expressed in the appropriate tissue of the fetal host mammal at a level sufficient to be sensitive to a prodrug. The optimal dose of a prodrug depends on the prodrug, the particular suicide gene, the level of suicide gene expression in the target cells, zygosity of the fetal mammal, route of administration, and placental transport. Optimal doses can readily be determined by administering increasing doses of the prodrug to the pregnant mammal, assessing the effect on the target cells using standard pathology methods and assessing the effect on fetal survival using ultrasound and pathology techniques. The optimal dose would produce significant cell injury (>20%) with a minimum of fetal deaths (<15%).
# Transgenic mice were produced with the FVB strain containing the mutated thymidine kinase transgene under the albumin promoter. […] These males were bred with non-transgenic FVB mice. At 14 days gestation, gancyclovir (0 to 100 mg/kg body weight) was injected intravenously into the pregnant mice. Tissues from the mothers and fetuses were analyzed by histology.
# [6] = system: non-transgenic FVB mice (mothers); test: Gancyclovir i.v. to pregnant non-transgenic mice, histology of the mothers; type: in vivo, mouse; settings: any dose (0 to 100 mg/kg i.v.)
# Excerpt: These males were bred with non-transgenic FVB mice.
# fetal pig liver = test: Engraftment of human hepatocytes in fetal pigs after gancyclovir to the sow and human cord blood cell infusion; type: in vivo; settings: gancyclovir 100 mg/kg i.v. to sow
# Experimental: A non-transgenic sow is bred with a boar that is hemizygous for a mutated thymidine kinase transgene under the control of an albumin promoter. Pregnancy is confirmed with ultrasound and gancyclovir (100 mg/kg, i.v.) is administered at 40 days gestation. A laparotomy is performed at 45 days. Each pig is infused with 10×10^6 human cord blood cells. The piglets are delivered at term by Caesarean section. Blood is drawn from each fetal pig and analyzed for the presence of the suicide transgene using PCR. Serum is tested for the presence of human liver proteins, including albumin, α1-antitrypsin, and serum amyloid A. Sections of liver are frozen and stained for human albumin.
# [7] = system: mice expressing thymidine kinase under the albumin promoter; test: Engraftment of human hepatocytes in transgenic mice given gancyclovir after birth; type: in vivo, mouse; settings: 50 mg/kg on days 1 and 3 at 14 days of age; sacrificed thirty days later
# Experimental: Transgenic mice are produced that express the thymidine kinase gene under the albumin promoter. The male mice are bred with wild type females. Human hepatocytes (2×10^6 per fetal mouse) are injected at 17 days gestation, just prior to delivery. At 14 days of age, the mice are injected with gancyclovir (50 mg/kg) on days 1 and 3 or with the vehicle. Thirty days later, the mice are sacrificed.
# [8] = system: hepatocytes of adult transgenic mice; settings: administered to adult transgenic mice; cited from earlier work
SMILES,effect on fetal pancreatic islets (pancreatic islets [1]),effect on maternal islets (pancreatic islets [1]),effect on fetal pancreatic islets (pancreatic islets [2]),effect on maternal islets (pancreatic islets [2]),"cell death ([3]; 8 or 16 μM gancyclovir, 5 days)",cell killing ([3]; 7 days),effect on non-transfected cells [4],fetal survival ([5]; 25 mg/kg intravenous injection to pregnant mouse),"fetal survival ([5]; 50 mg/kg and higher, to pregnant mouse)",fetal hepatocyte injury (histology) ([5]; 50 mg/kg i.v. to pregnant mouse),fetal hepatocyte injury (histology) ([5]; 100 mg/kg i.v. to pregnant mouse),"injury to the non-liver tissues in the fetal mice ([5]; mouse, in vivo)","placental transfer ([5]; mouse, in vivo, iv)",injury to the hepatocytes of the mother [6],"levels of human albumin, α1-antitrypsin inhibitor and serum amyloid A (fetal pig liver; piglets without thymidine kinase transgene)","liver engrafted with human hepatocytes (fetal pig liver; pigs with thymidine kinase suicide gene, average)",liver engrafted with human hepatocytes (fetal pig liver; pigs without suicide transgene),engraftment with human hepatocytes versus controls not treated [7],hepatocyte death [8]
CN(N=O)C(=O)N[C@H]1C(O)O[C@H](CO)[C@@H](O)[C@@H]1O (mixture of isomers) [streptozotocin],destroys the pancreatic islets,relatively little effect,destroys the pancreatic islets,relatively little effect,–,–,–,–,–,–,–,–,–,–,–,–,–,–,–
Nc1nc(O)c2ncn(COC(CO)CO)c2n1 [gancyclovir],–,–,–,–,significantly more cell death,entirely killed,only a minimal effect,the fetal pups survived,the fetal mice died,massive hepatic necrosis,massive hepatic necrosis,no observable injury,crosses the placental barrier,no observable injury,less than 1 % of levels seen in humans,25 % of the total liver,less than 2 % of the total liver,substantially greater engraftment,Most of the hepatocytes then died off

# Reference: US7626075B2, “Growth of foreign cells in fetal animals facilitated by conditional and selective destruction of native host cells” (priority 2002, dated 2009)
